# Literature values in US20040197404A1, “Extended release oral dosage form” (priority 2001, published 2004).
# Conditions: in vivo
compound,measurement,value
"NC(=O)c1ccc(F)c2c1C[C@@H](N(C1CCC1)C1CCC1)CO2.O.O=C(O)C(O)C(O)C(=O)O [(R)-3-N,N-dicyclobutylamino-8-fluoro-3,4-dihydro-2H-1-benzopyran-5-carboxamide hydrogen (2R,3R)-tartrate monohydrate]","plasma elimination half-life, t1/2",1.5 h
